Measurements from patent US20260028354A1, “TETRAHYDRONAPHTHALENE DERIVATIVES AS ESTROGEN RECEPTOR DEGRADERS” (REGENT OF THE UNIVERSITY OF MICHIGAN, priority 2022, published 2026).

Test: Western blot analysis for "B" compounds
Assay type: cell-based
Conditions: read-out: Traditional Western Degradation Potency (DC50)
Outline: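 Target protein levels given as relative mean band intensity over GAPDH from scanned immunoblots. Lysates of treated cells in RIPA buffer, equalized by BCA, separated on 10% gels and transferred to PVDF.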

| Compound | DC50 [nM] |
| --- | --- |
| O=C1CCC(N2C(=O)c3cc4c(cc3C2=O)CN(C(=O)CN2CCC[C@H](Oc3ccc([C@@H]5c6ccc(O)cc6CC[C@@H]5c5ccc(F)cc5)cc3)C2)C4)C(=O)N1 (stereo partly drawn) [Compound B38, 2-(2,6-dioxopiperidin-3-yl)-6-(2-((S)-3-(4-((1R,2S)-2-(4-fluorophenyl)-6-hydroxy-1,2,3,4-tetrahydronaphthalen-1-yl)phenoxy)piperidin-1-yl)acetyl)-6,7-dihydropyrrolo[3,4-f]isoindole-1,3(2H,5H)-dione] | > 100 |
| O=C1CCC(N2C(=O)c3cc4c(cc3C2=O)CN(C2CCC(CNC3CN(c5ccc([C@@H]6c7ccc(O)cc7CC[C@@H]6c6ccccc6)cc5)C3)CC2)C4)C(=O)N1 (stereo partly drawn) [Compound B100, 2-(2,6-dioxopiperidin-3-yl)-6-(4-(((1-(4-((1R,2S)-6-hydroxy-2-phenyl-1,2,3,4-tetrahydronaphthalen-1-yl)phenyl)azetidin-3-yl)amino)methyl)cyclohexyl)-6,7-dihydropyrrolo[3,4-f]isoindole-1,3(2H,5H)-dione] | > 100 |
| O=C1CCC(N2Cc3c(ccc4c3OC[C@H]3CN(C(=O)C5CCN(c6ccc([C@@H]7c8ccc(O)cc8CC[C@@H]7c7ccccc7)cc6)CC5)CCN43)C2=O)C(=O)N1 (stereo partly drawn) [Compound B295, 3-((R)-7-(1-(4-((1R,2S)-6-hydroxy-2-phenyl-1,2,3,4-tetrahydronaphthalen-1-yl)phenyl)piperidine-4-carbonyl)-1-oxo-1,3,5,5a,6,7,8,9-octahydro-2H-pyrazino[1′,2′:4,5][1,4]oxazino[2,3-e]isoindol-2-yl)piperidine-2,6-dione] | > 100 |
| CN(C1CCC(CN2Cc3cc4c(cc3C2)C(=O)N(C2CCC(=O)NC2=O)C4)CC1)C1CCN(c2ccc([C@@H]3c4ccc(O)cc4CC[C@@H]3c3ccccc3)cc2)CC1 (stereo partly drawn) [Compound B202, 3-(6-((4-((1-(4-((1R,2S)-6-hydroxy-2-phenyl-1,2,3,4-tetrahydronaphthalen-1-yl)phenyl)piperidin-4-yl)(methyl)amino)cyclohexyl)methyl)-1-oxo-3,5,6,7-tetrahydropyrrolo[3,4-f]isoindol-2(1H)-yl)piperidine-2,6-dione] | > 100 |
| O=C1CCC(N2C(=O)c3cc4c(cc3C2=O)CN(C[C@H]2CC[C@@H](N3CC(Nc5ccc([C@@H]6c7ccc(O)cc7CC[C@@H]6c6ccccc6)cc5)C3)CC2)C4)C(=O)N1 (stereo partly drawn) [Compound B119, 2-(2,6-dioxopiperidin-3-yl)-6-(((1S,4s)-4-(3-((4-((1R,2S)-6-hydroxy-2-phenyl-1,2,3,4-tetrahydronaphthalen-1-yl)phenyl)amino)azetidin-1-yl)cyclohexyl)methyl)-6,7-dihydropyrrolo[3,4-f]isoindole-1,3(2H,5H)-dione] | > 100 |
| O=C1CCC(N2C(=O)c3cc4c(cc3C2=O)CN(CC2CN(C(=O)C3CN(c5ccc([C@@H]6c7ccc(O)cc7CC[C@@H]6c6ccccc6)cc5)C3)C2)C4)C(=O)N1 (stereo partly drawn) [Compound B37, 2-(2,6-dioxopiperidin-3-yl)-6-((1-(1-(4-((1R,2S)-6-hydroxy-2-phenyl-1,2,3,4-tetrahydronaphthalen-1-yl)phenyl)azetidine-3-carbonyl)azetidin-3-yl)methyl)-6,7-dihydropyrrolo[3,4-f]isoindole-1,3(2H,5H)-dione] | > 100 |
| O=C1CCC(N2C(=O)c3cc4c(cc3C2=O)CN(CC(=O)N2CCC3(CC2)CCN(c2ccc([C@@H]5c6ccc(O)cc6CC[C@@H]5c5ccc(F)cc5)cc2)CC3)C4)C(=O)N1 (stereo partly drawn) [Compound B272, 2-(2,6-dioxopiperidin-3-yl)-6-(2-(9-(4-((1R,2S)-2-(4-fluorophenyl)-6-hydroxy-1,2,3,4-tetrahydronaphthalen-1-yl)phenyl)-3,9-diazaspiro[5.5]undecan-3-yl)-2-oxoethyl)-6,7-dihydropyrrolo[3,4-f]isoindole-1,3(2H,5H)-dione] | 10 to 100 |
| O=C1CCC(N2C(=O)c3cc4c(cc3C2=O)CN(Cc2cnc(N3CC(Oc5ccc([C@@H]6c7ccc(O)cc7CC[C@@H]6c6ccccc6)cc5)C3)cn2)C4)C(=O)N1 (stereo partly drawn) [Compound B104, 2-(2,6-dioxopiperidin-3-yl)-6-((5-(3-(4-((1R,2S)-6-hydroxy-2-phenyl-1,2,3,4-tetrahydronaphthalen-1-yl)phenoxy)azetidin-1-yl)pyrazin-2-yl)methyl)-6,7-dihydropyrrolo[3,4-f]isoindole-1,3(2H,5H)-dione] | > 100 |
| O=C1CCC(N2C(=O)c3cc4c(cc3C2=O)CN(CCC(=O)NC2CCN(c3ccc([C@@H]5c6ccc(O)cc6CC[C@@H]5c5ccccc5)cc3)CC2)C4)C(=O)N1 (stereo partly drawn) [Compound B94, 3-(6-(2,6-dioxopiperidin-3-yl)-5,7-dioxo-3,5,6,7-tetrahydropyrrolo[3,4-f]isoindol-2(1H)-yl)-N-(1-(4-((1R,2S)-6-hydroxy-2-phenyl-1,2,3,4-tetrahydronaphthalen-1-yl)phenyl)piperidin-4-yl)propenamide] | > 100 |
| CN(c1ccc([C@@H]2c3ccc(O)cc3CC[C@@H]2c2ccccc2)cc1)C1CN(C[C@H]2CC[C@H](C(=O)N3Cc4cc5c(cc4C3)C(=O)N(C3CCC(=O)NC3=O)C5=O)CC2)C1 (stereo partly drawn) [Compound B132, 2-(2,6-dioxopiperidin-3-yl)-6-((1R,4r)-4-((3-((4-((1R,2S)-6-hydroxy-2-phenyl-1,2,3,4-tetrahydronaphthalen-1-yl)phcnyl)(mcthyl)amino)azctidin-1-yl)mcthyl)cyclohexanc-1-carbonyl)-6,7-dihydropyrrolo[3,4-f]isoindole-1,3(2H,5H)-dione] | > 100 |
| O=C1CCC(N2Cc3cc4c(cc3C2=O)CN(C(=O)C2CCN(CC3CN(c5ccc([C@@H]6c7ccc(O)cc7CC[C@@H]6c6ccccc6)cc5)C3)CC2)C4)C(=O)N1 (stereo partly drawn) [Compound B80, 3-(6-(1-((1-(4-((1R,2S)-6-hydroxy-2-phenyl-1,2,3,4-tetrahydronaphthalen-1-yl)phenyl)azetidin-3-yl)methyl)piperidine-4-carbonyl)-1-oxo-3,5,6,7-tetrahydropyrrolo[3,4-f]isoindol-2(1H)-yl)piperidine-2,6-dione] | > 100 |
| O=C1CCC(N2C(=O)c3cc4c(cc3C2=O)CN(C2CCN(C(=O)[C@H]3C[C@H](Oc5ccc([C@@H]6c7ccc(O)cc7CC[C@@H]6c6ccccc6)cc5)C3)CC2)C4)C(=O)N1 (stereo partly drawn) [Compound B285, 2-(2,6-dioxopiperidin-3-yl)-6-(1-((1R,3r)-3-(4-((1R,2S)-6-hydroxy-2-phenyl-1,2,3,4-tetrahydronaphthalen-1-yl)phenoxy)cyclobutane-1-carbonyl)piperidin-4-yl)-6,7-dihydropyrrolo[3,4-f]isoindole-1,3(2H,5H)-dione] | 10 to 100 |

Other lines, results leading:

| DC50 [nM] | Compound |
| --- | --- |
| < 10 | O=C1CCC(N2C(=O)c3cc4c(cc3C2=O)CN([C@H]2CC[C@@H](C(=O)N3CC(Oc5ccc([C@@H]6c7ccc(O)cc7CC[C@@H]6c6ccccc6)cc5)C3)CC2)C4)C(=O)N1 (stereo partly drawn) [Compound B123, 2-(2,6-dioxopiperidin-3-yl)-6-((1R,4s)-4-(3-(4-((1R,2S)-6-hydroxy-2-phenyl-1,2,3,4-tetrahydronaphthalen-1-yl)phenoxy)azetidine-1-carbonyl)cyclohexyl)-6,7-dihydropyrrolo[3,4-f]isoindole-1,3(2H,5H)-dione] |
| 10 to 100 | O=C1CCC(N2C(=O)c3cc4c(cc3C2=O)CN(C2CN(C(=O)C3CCN(c5ccc([C@@H]6c7ccc(O)cc7CC[C@@H]6c6ccccc6)cc5)CC3)C2)C4)C(=O)N1 (mixture of isomers) [Compound B9, 2-(2,6-dioxopiperidin-3-yl)-6-(1-(1-(4-((1R,2S)-6-hydroxy-2-phenyl-1,2,3,4-tetrahydronaphthalen-1-yl)phenyl)piperidine-4-carbonyl)azetidin-3-yl)-6,7-dihydropyrrolo[3,4-f]isoindole-1,3(2H,5H)-dione] |
| 10 to 100 | O=C1CCC(N2C(=O)c3cc4c(cc3C2=O)CN(CC(=O)N2CC3(C2)CN(c2ccc([C@@H]5c6ccc(O)cc6CC[C@@H]5c5ccc(F)cc5)cc2)C3)C4)C(=O)N1 (mixture of isomers) [Compound B188, 2-(2,6-dioxopipcridin-3-yl)-6-(2-(6-(4-((1R,2S)-2-(4-fluorophenyl)-6-hydroxy-1,2,3,4-tetrahydronaphthalen-1-yl)phenyl)-2,6-diazaspiro[3.3]heptan-2-yl)-2-oxoethyl)-6,7-dihydropyrrolo[3,4-f]isoindole-1,3(2H,5H)-dione] |
| 10 to 100 | O=C1CCC(N2C(=O)c3cc4c(cc3C2=O)CN(CC(=O)N2CCC3(CC2)CN(c2ccc([C@@H]5c6ccc(O)cc6CC[C@@H]5c5ccccc5)cc2)C3)C4)C(=O)N1 (mixture of isomers) [Compound B186, 2-(2,6-dioxopiperidin-3-yl)-6-(2-(2-(4-((1R,2S)-6-hydroxy-2-phenyl-1,2,3,4-tetrahydronaphthalen-1-yl)phenyl)-2,7-diazaspiro[3.5]nonan-7-yl)-2-oxoethyl)-6,7-dihydropyrrolo[3,4-f]isoindole-1,3(2H,5H)-dione] |
| < 10 | O=C1CCC(N2Cc3cc4c(cc3C2=O)CN(C2CCN(CC3CCN(c5ccc([C@@H]6c7ccc(O)cc7CC[C@@H]6c6ccccc6)cc5)CC3)CC2)C4)C(=O)N1 (mixture of isomers) [Compound B3, 3-(6-(1-((1-(4-((1R,2S)-6-hydroxy-2-phenyl-1,2,3,4-tetrahydronaphthalen-1-yl)phenyl)piperidin-4-yl)methyl)piperidin-4-yl)-1-oxo-3,5,6,7-tetrahydropyrrolo[3,4-f]isoindol-2(1H)-yl)piperidine-2,6-dione] |
| < 10 | O=C1CCC(N2C(=O)c3cc4c(cc3C2=O)CN(CC(=O)N2CC3(CCN(c5ccc([C@@H]6c7ccc(O)cc7CC[C@@H]6c6ccc(F)cc6)cc5)CC3)C2)C4)C(=O)N1 (mixture of isomers) [Compound B11, 2-(2,6-dioxopiperidin-3-yl)-6-(2-(7-(4-((1R,2S)-2-(4-fluorophenyl)-6-hydroxy-1,2,3,4-tetrahydronaphthalen-1-yl)phenyl)-2,7-diazaspiro[3.5]nonan-2-yl)-2-oxoethyl)-6,7-dihydropyrrolo[3,4-f]isoindole-1,3(2H,5H)-dione] |
